Measured values: patent US20220304976A1, “Method of simultaneously treating viral disease caused coronavirus, its variants and mutants using a pharmaceutical micronutrient composition” (priority 2021, published 2022)
Read-outs that look alike come from different tables or passages of the source.

Key:
[1] = biological target: T1, hACE2 receptor (Homo sapiens, UniProt Q9BYF1); type: binding; settings: for Binging with ACE2 (% of control ± SD): Table 3
T1 construct: purchased GenScript

[2] = biological target: T2, RBD of SARS-CoV-2 spike protein binding to hACE2 receptor (Severe acute respiratory syndrome coronavirus 2, UniProt P0DTC2); assay: biochemical
T2 construct: purchased GenScript

[3] = tested on: SARS-CoV-2 spike protein pseudo-typed virions; type: cell-based
[4] = tested on: SARS-CoV-2 spike protein pseudo-typed virions; type: cell-based; remark: listed apart in the source
[5] = tested on: IL-6 secretion; assay: Interleukin 6 (IL-6) assay in HSAEpC (ELISA); type: cell-based, human; settings: LPS 5 mcg/ml
Protocol: Interleukin 6 (IL-6) assay: Human Small Airways Epithelial Cells (HSAEpC) were supplied by ATCC and cultured in Small Airways Epithelial Cells culture medium (ATCC). SAEC cells were seeded in six-well plates covered with collagen at 6 passage and grown to confluent layer. […] After 72 hours incubation conditioned media were collected and IL-6 content was measured using R&D Systems Human IL6 ELISA assay in accordance with the manufacture's protocol. Results were calculated with Microsoft Excel software and presented as a percentage of unsupplemented controls (an average of three repetitions+/−standard deviation).

T1 sequence (Q9BYF1 18-740): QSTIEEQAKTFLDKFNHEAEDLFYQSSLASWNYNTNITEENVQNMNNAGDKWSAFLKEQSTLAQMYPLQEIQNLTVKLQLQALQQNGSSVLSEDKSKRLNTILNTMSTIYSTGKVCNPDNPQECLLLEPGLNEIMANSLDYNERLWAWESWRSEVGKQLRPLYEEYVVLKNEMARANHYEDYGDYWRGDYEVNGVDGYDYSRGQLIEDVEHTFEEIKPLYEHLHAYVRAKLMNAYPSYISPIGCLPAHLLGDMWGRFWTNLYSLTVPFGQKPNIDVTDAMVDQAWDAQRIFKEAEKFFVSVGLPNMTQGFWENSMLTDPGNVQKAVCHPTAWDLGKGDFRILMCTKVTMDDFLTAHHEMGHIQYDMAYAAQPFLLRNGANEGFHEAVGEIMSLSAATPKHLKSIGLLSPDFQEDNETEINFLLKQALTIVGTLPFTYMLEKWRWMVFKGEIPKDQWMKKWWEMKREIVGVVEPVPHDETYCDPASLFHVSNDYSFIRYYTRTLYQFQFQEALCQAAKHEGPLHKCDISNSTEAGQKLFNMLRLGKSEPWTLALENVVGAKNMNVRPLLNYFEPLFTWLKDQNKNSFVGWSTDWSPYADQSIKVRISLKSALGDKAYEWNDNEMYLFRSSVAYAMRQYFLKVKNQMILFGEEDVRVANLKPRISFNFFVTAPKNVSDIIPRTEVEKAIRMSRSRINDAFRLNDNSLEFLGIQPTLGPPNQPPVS

COc1ccc(Cc2nccc3cc(OC)c(OC)cc23)cc1OC [Papaverine, reference compound] was tested, and the “Binging with ACE2 (% of control ± SD)” value ([1]; tested at 0.1 mg/ml) was 6.5 ± 3.7 % of control.
With Oc1cc(O)cc(O)c1 [Phloroglucinol] the “Binging with ACE2 (% of control ± SD)” value ([1]; tested at 0.1 mg/ml) was 5.9 ± 3.4 % of control.
For COc1cc(/C=C/c2ccc(O)cc2)cc(OC)c1 [Pterostilbene], the “Binging with ACE2 (% of control ± SD)” value ([1]; tested at 0.1 mg/ml) was 9.4 ± 2.5 % of control.
O=c1c(O)c(-c2ccc(O)c(O)c2)oc2cc(O)cc(O)c12 [Quercetin] was tested, and the “Binging with ACE2 (% of control ± SD)” value ([1]; tested at 0.1 mg/ml) was 7.8 ± 3.3 % of control.
In the case of O=C(/C=C/c1ccc(O)c(O)c1)O[C@H](Cc1ccc(O)c(O)c1)C(=O)O [Rosmarinic acid], the “Binging with ACE2 (% of control ± SD)” value ([1]; tested at 0.1 mg/ml) is reported as 7.9 ± 1.8 % of control.
With C[C@@H]1O[C@@H](OC[C@H]2O[C@@H](Oc3c(-c4ccc(O)c(O)c4)oc4cc(O)cc(O)c4c3=O)[C@H](O)[C@@H](O)[C@@H]2O)[C@H](O)[C@H](O)[C@H]1O [Rutin] the “Binging with ACE2 (% of control ± SD)” value ([1]; tested at 0.1 mg/ml) was 4.8 ± 2.0 % of control.
In the case of O=C(O)[C@H]1O[C@@H](Oc2cc3oc(-c4ccc(O)cc4)cc(=O)c3c(O)c2O)[C@H](O)[C@@H](O)[C@@H]1O [Scutellarin], the “Binging with ACE2 (% of control ± SD)” value ([1]; tested at 0.1 mg/ml) is reported as 7.5 ± 1.7 % of control.
With O=C(OC[C@H]1O[C@@H](OC(=O)c2cc(O)c(O)c(OC(=O)c3cc(O)c(O)c(O)c3)c2)[C@H](OC(=O)c2cc(O)c(O)c(OC(=O)c3cc(O)c(O)c(O)c3)c2)[C@@H](OC(=O)c2cc(O)c(O)c(OC(=O)c3cc(O)c(O)c(O)c3)c2)[C@@H]1OC(=O)c1cc(O)c(O)c(OC(=O)c2cc(O)c(O)c(O)c2)c1)c1cc(O)c(O)c(OC(=O)c2cc(O)c(O)c(O)c2)c1 [Tannic acid] the “Binging with ACE2 (% of control ± SD)” value ([1]; tested at 0.1 mg/ml) was 7.2 ± 2.3 % of control.
O=c1c(O)cc([C@H]2Oc3cc(O)cc(O)c3C[C@H]2O)cc2c([C@H]3Oc4cc(O)cc(O)c4C[C@H]3O)cc(O)c(O)c12 [Theafalvin] was tested, and the “Binding to RBD (% of control ± DS)” value [2] was 27.3 ± 1.4 % of control and the “Binging to ACE2 (% of control ± DS)” value ([1]; Table 4, tested at 0.1 mg/ml) was 7.9 ± 1.9 % of control.
For Oc1ccc(/C=C/c2cc(O)cc(O)c2)cc1 [Trans-resveratrol], the “Binging with ACE2 (% of control ± SD)” value ([1]; tested at 0.1 mg/ml) was 5.5 ± 2.4 % of control.
CC(=O)c1c(O)c(C)c(O)c2c1OC1=CC(=O)C(C(C)=O)C(=O)C12C (centres unmarked) [Usnic acid] was tested, and the “Binging with ACE2 (% of control ± SD)” value ([1]; tested at 0.1 mg/ml) was 5.7 ± 1.7 % of control.
With (+)-epigallocatechin gallate the “Binding to RBD (% of control ± DS)” value [2] was 87.5 ± 6.8 % of control and the “Binging to ACE2 (% of control ± DS)” value ([1]; Table 4, tested at 0.1 mg/ml) was 5.9 ± 2.0 % of control.
(+)-gallocatechin was tested, and the “Binding to RBD (% of control ± DS)” value [2] was 69.5 ± 2.8 % of control and the “Binging to ACE2 (% of control ± DS)” value ([1]; Table 4, tested at 0.1 mg/ml) was 5.7 ± 1.6 % of control.
For (−)-catechin gallate, the “Binding to RBD (% of control ± DS)” value [2] was 37.4 ± 4.7 % of control and the “Binging to ACE2 (% of control ± DS)” value ([1]; Table 4, tested at 0.1 mg/ml) was 8.6 ± 1.5 % of control.
(−)-gallocatechin was tested, and the “Binding to RBD (% of control ± DS)” value [2] was 73.5 ± 6.7 % of control and the “Binging to ACE2 (% of control ± DS)” value ([1]; Table 4, tested at 0.1 mg/ml) was 3.9 ± 2.3 % of control.
For (−)-gallocatechin gallate, the “Binding to RBD (% of control ± DS)” value [2] was 75.4 ± 5.6 % of control and the “Binging to ACE2 (% of control ± DS)” value ([1]; Table 4, tested at 0.1 mg/ml) was 7.5 ± 1.7 % of control.
In the case of D-limonene, the “Binding with RBD (% of control ± SD)” value [2] is reported as 27.2 ± 6.4 % of control and the “Binging with ACE2 (% of control ± SD)” value ([1]; tested at 0.1 mg/ml) is reported as 6.4 ± 1.5 % of control.
With Hesperidin the “Binding with RBD (% of control ± SD)” value [2] was 90.3 ± 3.8 % of control and the “Binging with ACE2 (% of control ± SD)” value ([1]; tested at 0.1 mg/ml) was 8.3 ± 2.3 % of control.
In the case of L-sulforaphane, the “Binding to RBD (% of control ± DS)” value [2] is reported as 30.2 ± 3.6 % of control and the “Binging to ACE2 (% of control ± DS)” value [1] is reported as 6.7 ± 1.5 % of control.
Palmatine was tested, and the “Binding with RBD (% of control ± SD)” value [2] was 40.4 ± 6.1 % of control and the “Binging with ACE2 (% of control ± SD)” value ([1]; tested at 0.1 mg/ml) was 8.5 ± 2.7 % of control.
Procyanidin B2 was tested, and the “Binding with RBD (% of control ± SD)” value [2] was 31.1 ± 3.6 % of control and the “Binging with ACE2 (% of control ± SD)” value ([1]; tested at 0.1 mg/ml) was 5.8 ± 2.7 % of control.
With Procyanidin B3 the “Binding with RBD (% of control ± SD)” value [2] was 32.3 ± 3.7 % of control and the “Binging with ACE2 (% of control ± SD)” value ([1]; tested at 0.1 mg/ml) was 7.8 ± 2.7 % of control.
Schisandrin was tested, and the “Binding with RBD (% of control ± SD)” value [2] was 22.4 ± 3.3 % of control and the “Binging with ACE2 (% of control ± SD)” value ([1]; tested at 0.1 mg/ml) was 5.1 ± 2.7 % of control.
With Theaflavine-3′3-digallate the “inhibition of pseudo-typed virion binding to hACE2/A549 (in words)” value [3] was “similarly inhibited binding” and the “concentration from which inhibition of transduction is statistically significant” value [4] was 10 µg/mL.
In the case of Urolithin A, the “Binding with RBD (% of control ± SD)” value [2] is reported as 31.1 ± 4.6 % of control and the “Binging with ACE2 (% of control ± SD)” value ([1]; tested at 0.1 mg/ml) is reported as 8.8 ± 1.6 % of control.
lipopolysaccharide was tested, and the “increase of IL-6 secretion” value [5] was 43%.
